The results in this text go back to PubChem BioAssay AID1996.

Converted amounts (≈) assume the structure as drawn.

The conditions of this data set: buffer; pH 7.4; 200.0 µM.
One may read the solubility (kinetic) as the concentration staying in solution when a stock, usually in DMSO, is diluted into the medium. For `CCc1ccc(Nc2ncnc3nc[nH]c23)cc1`, the solubility (kinetic) is greater than 35.9 µg/mL.
Under `COC(=O)c1ccc(Cn2cnc3cnccc32)cc1` stands 29.9 µg/mL (≈ 112 µM).
On to `CC(=O)N1CCN(c2ccccc2NC(=O)COc2ccccc2C)CC1`, for which the solubility (kinetic) is 49.7 µg/mL (≈ 135 µM).
`O=C(COC(=O)CCC(=O)c1ccc(F)cc1)NCc1ccccc1Cl` yielded a kinetic solubility greater than 56.7 µg/mL.
Compound `CC(OC(=O)C1=Cc2ccccc2OC1)C(=O)NCc1ccco1` (centres undefined) yielded a kinetic solubility of 7.1 µg/mL (≈ 21.7 µM).
Take `CCn1c(SCc2ccccc2)nc2c1c(=O)[nH]c(=O)n2C`: the solubility (kinetic) came to 39.3 µg/mL (≈ 124 µM).
Under `COC(=O)C(C)NC(=O)C12CC3CC(C1)CC(c1ccc(C)cc1)(C3)C2` (centres undefined) stands 30.6 µg/mL (≈ 86.1 µM); under `CC(C)CN(C(=O)c1ccco1)C1CCS(=O)(=O)C1` (centres undefined), greater than 42.8 µg/mL.
Turning to `O=C(CCNC(=O)c1ccccc1)Nc1ccc(Cl)c(S(=O)(=O)N2CCCCC2)c1`, the kinetic solubility was 29.8 µg/mL (≈ 66.2 µM).
The figure for `Cc1ccc(S(=O)(=O)N2CC(=NN=C(N)N)C2)cc1` is greater than 42.2 µg/mL; for `O=C(NCCN1CCCCC1)Nc1ccccc1Cl` it is greater than 42.3 µg/mL; for `O=C(CSc1nc(O)c(Cc2ccccc2)c(=O)[nH]1)c1ccccc1` it is greater than 52.9 µg/mL.
As to `OC(CC#CCN1CCCCC1)(c1ccccc1)c1ccccc1`, the solubility (kinetic) was greater than 47.9 µg/mL.
The compound `COc1ccccc1N1CC(C(=O)Nc2ccc(S(=O)(=O)N3CCCC3)cc2)CC1=O` (centres undefined) registered a kinetic solubility greater than 66.5 µg/mL.
For `O=C(CC(=O)c1ccccc1)Nc1ccccc1`, the solubility (kinetic) was 29.5 µg/mL (≈ 123 µM).
The figure for `COC(=O)c1cccc(Nc2ccc([N+](=O)[O-])cn2)c1` is 0.3 µg/mL (≈ 1.1 µM).
The compound `O=[N+]([O-])c1ccccc1-c1ccc(C(=S)N2CCCCC2)o1` displayed a solubility (kinetic) of 11.8 µg/mL (≈ 37.3 µM).
On to `COc1ccc(Cl)cc1NC(=O)/C=C/C(=O)O`, for which the kinetic solubility was greater than 38.3 µg/mL.
Under `Cc1ccc(SCC(=O)NC2CC2)cc1` stands greater than 33.2 µg/mL; under `COc1cnc(-c2ccccn2)nc1Oc1cccc(C(F)(F)F)c1`, 37.4 µg/mL (≈ 108 µM); under `Cc1onc(-c2ccccc2)c1C(=O)NCc1cccc(Cl)c1`, 1.1 µg/mL (≈ 3.37 µM).
Turning to `Cl.NC(N)=Nc1nc(-c2ccccc2)c2cc(Cl)ccc2n1`, the kinetic solubility was found to be 9.7 µg/mL.
As to `O=C(O)CNC(=S)N(Cc1ccccc1Cl)C1CCCCC1`, the kinetic solubility turned out to be 49.1 µg/mL (≈ 144 µM).
`CC(=O)N/C(=N/c1nc(C)cc(C)n1)Nc1ccc(C)cc1C`: the solubility (kinetic) was 3.4 µg/mL (≈ 10.9 µM).
Under `O=C(Nc1nccs1)c1ccc[nH]c1=O` stands greater than 33.2 µg/mL.
The figure for `Cc1nn(CC(=O)O)c(C)c1NC(=O)c1cccs1` is greater than 41.9 µg/mL; for `OC(CNCc1ccccc1F)COc1cccc2ccccc12` (centres undefined) it is 39.6 µg/mL (≈ 122 µM).
`CCN(C(=O)CSc1ccccn1)C1CCCCC1` displayed a solubility (kinetic) greater than 41.8 µg/mL.
In the case of `S=C1NCN(Cc2cccnc2)CN1Cc1ccccc1`, the kinetic solubility was greater than 44.8 µg/mL.
The figure for `O=C(Nc1cccc(-c2cnc3ccccc3n2)c1)c1ccncc1` is 0.6 µg/mL (≈ 1.84 µM); for `CC(C)CN(C(=O)C1CCCCC1)C1CCS(=O)(=O)C1` (centres undefined) it is greater than 45.2 µg/mL; for `COc1ccc(C(=O)NCc2ccc3c(c2)OCO3)cc1` it is 42.4 µg/mL (≈ 149 µM).
Compound `CCC1(CC)Cc2ccccc2C(=O)N1` registered a kinetic solubility greater than 30.5 µg/mL.
As to `Clc1ccccc1-c1csc(Nc2cccnc2)n1`, the kinetic solubility turned out to be 0.3 µg/mL (≈ 1.04 µM).
On to `COc1ccccc1NC(=O)COC(=O)c1ccc2ccccc2n1`, for which the solubility (kinetic) was determined as 13.1 µg/mL (≈ 38.9 µM).
The compound `Nc1c(C(=O)N2CCCCC2)sc2nc3c(cc12)CCCC3` displayed a solubility (kinetic) of 41.7 µg/mL (≈ 132 µM).
Take `Cc1cc(NC(=O)CCl)no1`: the solubility (kinetic) is greater than 26.2 µg/mL.
The compound `COC(=O)CNC(=O)C1CC(=O)N(CCc2ccc(F)cc2)C1` (centres undefined) displayed a solubility (kinetic) greater than 48.4 µg/mL.
For the compound `CC1(c2ccccc2Br)NC(=O)N(CC(=O)N2CCc3ccccc3C2)C1=O` (centres undefined), the solubility (kinetic) stood at 8.1 µg/mL (≈ 18.3 µM).
`O=[N+]([O-])c1ccc(Cl)c(CN2CCCCCC2)c1` registered a kinetic solubility of 13.8 µg/mL (≈ 51.3 µM).
Take `O=c1[nH]c(/C=C/c2ccccc2)c([N+](=O)[O-])c(=O)[nH]1`: the solubility (kinetic) was greater than 38.9 µg/mL.
In the case of `COc1ccc(-c2noc(CN(Cc3nccn3C)C(C)C)n2)cc1`, the solubility (kinetic) turned out to be 45.6 µg/mL (≈ 134 µM).
Under `C=CCNC(=O)c1cc(-c2cccnc2)nc2ccccc12` stands greater than 43.4 µg/mL; under `CNC(=S)Nc1cc(C(=O)N2CCCC2)ccc1N1CCCC1`, greater than 49.9 µg/mL.
Compound `CC(=O)c1ccc(S(=O)(=O)Nc2ccc(S(=O)(=O)N3CCCCC3)cc2)cc1` registered a kinetic solubility greater than 63.4 µg/mL.
`Clc1ccc(-c2nc(C3CCCCC3)no2)cc1` yielded a kinetic solubility of less than 0.3 µg/mL.
Under `O=C(O)C1C2C=CC(C2)C1C(=O)Nc1cccc(Cl)c1` (centres undefined) stands 42.8 µg/mL (≈ 147 µM); under `O=S(=O)(c1ccc(=S)[nH]c1)N1CCN(Cc2ccccc2)CC1`, greater than 52.4 µg/mL.
Turning to `C=C(C)[C@@H]1CC=C(CN2CCC(CCOC)(C(=O)OCC)CC2)CC1`, the kinetic solubility was 38.7 µg/mL (≈ 111 µM).
`O=C(O)c1cccc(S(=O)(=O)Nc2ccc(Oc3ccccc3)cc2)c1` came in with a solubility (kinetic) greater than 55.4 µg/mL.
`O=C1CSC(=Nc2ccc(O)cc2)N1` gave a kinetic solubility greater than 31.2 µg/mL.
The figure for `CN1CCCN(C(=O)COc2ccc(F)cc2F)CC1` is greater than 42.6 µg/mL.
The figure for `Cn1c(SCC(=O)N2CCCC2=O)nc2ccccc21` is greater than 43.4 µg/mL.
As to `COc1cc(=O)[nH]c(SC(C)C(=O)Nc2cccc3ccccc23)n1` (centres undefined), the solubility (kinetic) turned out to be 0.9 µg/mL (≈ 2.53 µM).
In turn, `CCc1nc(C)cc2c1sc1ccccc12.Cl` showed a solubility (kinetic) of 1 µg/mL.
Take `CC(=O)Nc1cccc(OCCCNC(=O)C2CCC2)c1`: the kinetic solubility was greater than 43.6 µg/mL.
In turn, `COc1ccc(CNC(=O)CCn2c(=O)[nH]c3ccccc3c2=O)cc1` showed a solubility (kinetic) of 2.9 µg/mL (≈ 8.21 µM).
`Cc1cc(C)nc(NC2=NCCN2C(=S)Nc2ccc(C)c(C)c2)n1` came in with a kinetic solubility of 2.4 µg/mL (≈ 6.77 µM).
In turn, `COc1ccc(Br)cc1/C=C/C(=O)NCC(=O)O` came in with a kinetic solubility greater than 47.1 µg/mL.
The figure for `O=C(/C=C/c1ccc(OCc2cccc(Cl)c2)cc1)N1CCOCC1` is 5.2 µg/mL (≈ 14.5 µM); for `CC1CCN(C(=O)c2cc3c(ccc4ccccc43)o2)CC1` it is less than 0.6 µg/mL; for `COc1ccc2nc(Cl)cc(Cl)c2c1` it is 0.9 µg/mL (≈ 3.95 µM).
Compound `O=C(Nc1cccc2cccnc12)c1ccccc1Br` displayed a solubility (kinetic) of 0.4 µg/mL (≈ 1.22 µM).
Compound `CCOC(=O)Cc1c(C)nc(N)[nH]c1=O` displayed a kinetic solubility of 31.1 µg/mL (≈ 147 µM).
On to `Cc1cccn2cc(-c3cccc(NC(=O)c4cccs4)c3)nc12`, for which the solubility (kinetic) was 5.5 µg/mL (≈ 16.5 µM).
Regarding `CCc1nc2ccc(C(=O)N(C)CC(=O)Nc3ccccc3C(F)(F)F)cc2nc1CC`, the kinetic solubility was found to be 27.6 µg/mL (≈ 62.1 µM).
`CN(C)S(=O)(=O)c1cccc(NC(=O)c2ccc(NS(=O)(=O)c3cccs3)cc2)c1` returned a kinetic solubility of 59.5 µg/mL (≈ 128 µM).
`Cc1ccc(NC(=O)CNS(=O)(=O)c2ccc(F)cc2)cc1C`: the solubility (kinetic) was found to be 6.7 µg/mL (≈ 19.9 µM).
`Cc1ccc(C(=O)/C=C/N(C)C)cn1`: the solubility (kinetic) was 26.6 µg/mL (≈ 140 µM).
Compound `COc1ccccc1CNC(=O)/C=C/C(=O)O` yielded a solubility (kinetic) greater than 35.3 µg/mL.
The figure for `O=C(NCC1CCCO1)c1ccc(NC(=O)c2cccc([N+](=O)[O-])c2)cc1` (centres undefined) is 3.5 µg/mL (≈ 9.48 µM); for `Cn1c2ccccc2c2ncn(Cc3ccc(F)cc3)c(=O)c21` it is less than 0.2 µg/mL.
On to `C/C(=N/NC(=O)c1ccccn1)c1ccncc1`, for which the solubility (kinetic) is greater than 36 µg/mL.
The compound `NS(=O)(=O)c1ccc(CNC(=O)c2ccc(C(=O)c3ccccc3)cc2)cc1` displayed a solubility (kinetic) of 14.6 µg/mL (≈ 37 µM).
For the compound `O=C(NNC(=O)C1CCC1)c1ccccc1`, the kinetic solubility is greater than 32.7 µg/mL.
For the compound `CCC(C)NC(=O)c1ccc2c(Cl)c3c(nc2c1)CCC3` (centres undefined), the kinetic solubility worked out at 9.9 µg/mL (≈ 32.7 µM).
The figure for `COCCN(C(=S)Nc1cccc(C)c1C)C(C)c1ccco1` (centres undefined) is 40.1 µg/mL (≈ 121 µM).
The figure for `COC(=O)c1ccc(S(=O)(=O)NCCc2ccccc2OC)n1C` is 23 µg/mL (≈ 65.3 µM); for `CN1C(=O)S/C(=C/c2ccc(OCc3cccc(C(=O)O)c3)cc2)C1=O` it is 10.6 µg/mL (≈ 28.7 µM); for `O=C(COc1ccc(C(=O)O)cc1)Nc1cccc(C(F)(F)F)c1` it is greater than 50.9 µg/mL.
Compound `O=C(/C=C/c1ccco1)NCC1COc2ccccc2O1` (centres undefined) yielded a solubility (kinetic) greater than 42.8 µg/mL.
The figure for `Nc1cc(Cl)ccc1C(=O)OCC(=O)N1CCOCC1` is greater than 44.8 µg/mL; for `OC(CNCc1ccccc1Cl)C(F)(F)F` (centres undefined) it is 34.1 µg/mL (≈ 134 µM).
For `CCOc1ccc(/C=C\c2nc(O)c([N+](=O)[O-])c(=O)[nH]2)cc1OCC`, the kinetic solubility worked out at 29 µg/mL (≈ 83.5 µM).
The compound `FC(F)(F)c1cccc(-c2nc(COc3ccc(Cl)cc3Cl)no2)c1` had a solubility (kinetic) of less than 0.4 µg/mL.
Take `COc1ccc(C2C(C#N)=C(N)Oc3c2oc(CO)cc3=O)cc1` (centres undefined): the solubility (kinetic) is greater than 48.9 µg/mL.
Regarding `COc1ccccc1N1CCN(c2cnccn2)CC1`, the solubility (kinetic) was greater than 40.6 µg/mL.
`COCc1cc(=O)oc2cc(NS(=O)(=O)c3ccc(C)cc3)ccc12` displayed a solubility (kinetic) of 1.3 µg/mL (≈ 3.62 µM).
Under `C=CCOc1ccc(CN(C)CC(O)COc2cccc3ccccc23)cc1` (centres undefined) stands 19.5 µg/mL (≈ 51.7 µM).
Under `COc1ccc(C(=O)NC(Cc2c[nH]c3ccccc23)C(=O)O)cc1` (centres undefined) stands greater than 50.8 µg/mL.
The compound `CCCOc1ccc(C2NC(=O)CCC2[N+](=O)[O-])cc1` (centres undefined) yielded a kinetic solubility greater than 41.7 µg/mL.
Compound `O=C(Cc1ccccc1[N+](=O)[O-])Nc1nccs1` yielded a kinetic solubility of 7.3 µg/mL (≈ 27.7 µM).
`CCOC(=O)c1cn(C2CC2)c2c(F)c(NCCCN(C)C)c(F)cc2c1=O` gave a kinetic solubility of 53.5 µg/mL (≈ 136 µM).
`Cc1csc(NC(=O)CN2C(=O)COc3ccc(Cl)cc32)n1` returned a solubility (kinetic) of 2.1 µg/mL (≈ 6.22 µM).
`COc1ccc(CNC(=O)COc2ccc(OC)cc2)cc1` showed a solubility (kinetic) of 35.8 µg/mL (≈ 119 µM).
With `COc1ccc(NC(=S)NC(=O)/C=C/c2ccco2)cc1`, the solubility (kinetic) was 1.2 µg/mL (≈ 3.97 µM).
Consider `N#Cc1ccc(N2CCN(C(=O)c3cccs3)CC2)c(F)c1`, for which the kinetic solubility was found to be 40.1 µg/mL (≈ 127 µM).
Under `Fc1ccccc1-c1nc(NCc2ccccc2)c2ccccc2n1` stands 3.1 µg/mL (≈ 9.41 µM).
In turn, `COc1cccc2[nH]c(C(=O)NCCc3ccccc3)cc12` came in with a solubility (kinetic) of 1 µg/mL (≈ 3.4 µM).
Under `O=C(CNC(=O)c1ccco1)NCc1nc2ccccc2[nH]1` stands greater than 44.7 µg/mL; under `Clc1nccc(N2CCN(c3ccccc3Cl)CC2)n1`, 13.3 µg/mL (≈ 43 µM).
The compound `O=C1CSC(c2cccnc2)N1c1cccc(Cl)c1` (centres undefined) gave a solubility (kinetic) of 43.3 µg/mL (≈ 149 µM).
With `CCc1cccc(CC)c1C(OC(C)=O)c1cccnc1` (centres undefined), the solubility (kinetic) came to 30.7 µg/mL (≈ 108 µM).
Under `O=C1CCCCCCCCCC/C(=N\O)CCCO1` stands 9.8 µg/mL (≈ 36.4 µM).
